Assay results published in patent publication US10696674B2, “Spirolactams as inhibitors of ROCK” (BRISTOL-MYERS SQUIBB COMPANY, priority 2016, dated 2020).

target: ROCK2 (Homo sapiens, UniProt O75116); assay: ROCK2 assay (Caliper LABCHIP peptide phosphorylation); format: biochemical; details: 5 μM ATP, 1.5 μM peptide substrate
Procedure: The effectiveness of compounds of the present invention as ROCK inhibitors can be determined in a 30 μL assay containing 20 mM HEPES, pH 7.5, 20 mM MgCl2, 0.015% Brij-35, 4 mM DTT, 5 μM ATP and 1.5 μM peptide substrate (FITC-AHA-AKRRRLSSLRA-OH) (SEQ ID NO.1). Compounds were dissolved in DMSO so that the final concentration of DMSO was <2%, and the reaction was initiated with Rho kinase variants. After incubation, the reaction was terminated by the addition of EDTA and the phosphorylated and non-phosphorylated peptides separated using a LABCHIP® 3000 Reader (Caliper Life Sciences). […] Compounds were tested in dose-response format, and the inhibition of kinase activity was calculated at each concentration of compound. The inhibition data were fit using a curve-fitting program to determine the IC50; i.e., the concentration of compound required to inhibit 50% of kinase activity.
Representative Examples were tested in the ROCK2 assay described above and found having ROCK2 inhibitory activity. The ranges of the ROCK2 IC50 values are as follows: ROCK2 IC50: ++++ (<3 nM) +++ (3-30 nM) ++ (30-300 nM) + (300-2000 nM)

Sequence of ROCK2 (O75116 whole entry, species assumed): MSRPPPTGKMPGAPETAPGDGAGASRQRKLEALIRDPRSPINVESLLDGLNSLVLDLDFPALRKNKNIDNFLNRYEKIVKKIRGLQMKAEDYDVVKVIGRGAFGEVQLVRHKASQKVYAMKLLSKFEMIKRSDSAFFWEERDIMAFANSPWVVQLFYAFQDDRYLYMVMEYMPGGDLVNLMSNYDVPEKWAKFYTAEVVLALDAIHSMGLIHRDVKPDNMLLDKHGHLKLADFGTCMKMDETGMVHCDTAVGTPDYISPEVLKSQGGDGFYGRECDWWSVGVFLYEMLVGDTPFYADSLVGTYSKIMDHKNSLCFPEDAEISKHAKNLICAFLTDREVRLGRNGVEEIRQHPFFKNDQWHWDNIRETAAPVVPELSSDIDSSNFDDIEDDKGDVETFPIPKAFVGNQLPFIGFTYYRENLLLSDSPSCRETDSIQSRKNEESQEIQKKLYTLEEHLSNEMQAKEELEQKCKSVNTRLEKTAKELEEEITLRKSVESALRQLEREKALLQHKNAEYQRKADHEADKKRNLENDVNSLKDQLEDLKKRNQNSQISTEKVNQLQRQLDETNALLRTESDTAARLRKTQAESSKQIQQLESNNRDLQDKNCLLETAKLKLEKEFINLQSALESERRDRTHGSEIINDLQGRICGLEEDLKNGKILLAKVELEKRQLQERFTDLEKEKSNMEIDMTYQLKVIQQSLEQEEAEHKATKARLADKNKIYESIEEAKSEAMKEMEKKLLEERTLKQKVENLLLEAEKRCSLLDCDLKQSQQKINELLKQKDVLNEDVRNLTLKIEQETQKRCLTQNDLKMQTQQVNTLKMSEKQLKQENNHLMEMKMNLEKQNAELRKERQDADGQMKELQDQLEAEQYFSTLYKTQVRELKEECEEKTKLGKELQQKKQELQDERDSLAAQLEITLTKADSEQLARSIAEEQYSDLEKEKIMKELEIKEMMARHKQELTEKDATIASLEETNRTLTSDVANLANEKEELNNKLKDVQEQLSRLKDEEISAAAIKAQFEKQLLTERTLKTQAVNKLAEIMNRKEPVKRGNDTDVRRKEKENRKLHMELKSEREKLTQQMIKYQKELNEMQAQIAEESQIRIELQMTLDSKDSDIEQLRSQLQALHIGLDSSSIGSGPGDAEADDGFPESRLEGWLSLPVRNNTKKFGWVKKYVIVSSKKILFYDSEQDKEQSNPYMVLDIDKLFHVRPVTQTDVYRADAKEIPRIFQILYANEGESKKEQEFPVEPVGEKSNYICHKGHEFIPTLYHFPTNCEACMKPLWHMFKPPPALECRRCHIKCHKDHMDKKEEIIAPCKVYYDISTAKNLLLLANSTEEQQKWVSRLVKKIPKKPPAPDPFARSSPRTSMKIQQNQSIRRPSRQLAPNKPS

First: O=C1N(c2ccc(-c3cn[nH]c3)cc2)CCC12Cc1cc(F)ccc1N2 (racemic) [Example 7, 1′-(4-(1H-Pyrazol-4-yl)phenyl)-5-fluorospiro[indoline-2,3′-pyrrolidin]-2′-one]
Second: COc1ccc2c(c1)CC1(CCN(c3ccc(-c4cn[nH]c4)cc3)C1=O)N2 (stereo not shown) [Example 12, 1′-(4-(1H-Pyrazol-4-yl)phenyl)-5-methoxyspiro[indoline-2,3′-pyrrolidin]-2′-one]
The IC50 of the first is lower: 3 to 30 nM for the first, 30 to 300 nM for the second.

First: O=C1N(c2ccc(-c3cn[nH]c3)cc2)CCC12Cc1ccccc1O2 (racemic) [Example 29, 1′-(4-(1H-Pyrazol-4-yl)phenyl)-3H-spiro[benzofuran-2,3′-pyrrolidin]-2′-one]
Second: COc1ccc2c(c1)CC1(CCN(c3ccc(-c4cn[nH]c4)cc3)C1=O)O2 (single isomer, unassigned) [Example 25, 1′-(4-(1H-Pyrazol-4-yl)phenyl)-5-methoxy-3H-spiro[benzofuran-2,3′-pyrrolidin]-2′-one]
The IC50 of the first is lower: < 3 nM for the first, 30 to 300 nM for the second. The first is the more potent here.

`COc1cc(N2CCC3(Cc4ccccc4N3)C2=O)ccc1-c1cn[nH]c1` (racemic) [Example 32, 1′-(3-methoxy-4-(1H-pyrazol-4-yl)phenyl)spiro[indoline-2,3′-pyrrolidin]-2′-one] and `COc1nc(N2CCC3(Cc4ccccc4N3)C2=O)ccc1-c1cn[nH]c1` (stereo not shown) [Example 10, 1′-(6-methoxy-5-(1H-pyrazol-4-yl)pyridin-2-yl)spiro[indoline-2,3′-pyrrolidin]-2′-one] cannot be ordered by IC50: < 3 nM for the first, < 3 nM for the second.

`COc1cc(F)c2c(c1)NC1(CCN(c3ccc(-c4cn[nH]c4)cc3)C1=O)C2` (racemic) [Example 38, 1′-(4-(1H-Pyrazol-4-yl)phenyl)-4-fluoro-6-methoxyspiro[indoline-2,3′-pyrrolidin]-2′-one] and `COc1ccc2c(c1)NC1(CCN(c3ccc(-c4cn[nH]c4)cc3)C1=O)C2` (single isomer, unassigned) [Example 5, 1′-(4-(1H-Pyrazol-4-yl)phenyl)-6-methoxyspiro[indoline-2,3′-pyrrolidin]-2′-one] cannot be ordered by IC50: < 3 nM for the first, < 3 nM for the second.

First: O=C1N(c2ccc(-c3cn[nH]c3)cc2)CCC12Cc1ccccc1N2 (single isomer, unassigned) [Example 2, 1′-(4-(1H-Pyrazol-4-yl)phenyl)spiro[indoline-2,3′-pyrrolidin]-2′-one]
Second: O=C1N(c2ccc(-c3cn[nH]c3)cc2)CCC12Cc1cc(F)ccc1N2 (single isomer, unassigned) [Example 8, 1′-(4-(1H-Pyrazol-4-yl)phenyl)-5-fluorospiro[indoline-2,3′-pyrrolidin]-2′-one]
The IC50 of the first is lower: < 3 nM for the first, 3 to 30 nM for the second. The first is the more potent here.

`O=C1N(c2ccc(-c3cn[nH]c3)cc2)CCC12Cc1ccccc1N2` (single isomer, unassigned) [Example 3, 1′-(4-(1H-Pyrazol-4-yl)phenyl)spiro[indoline-2,3′-pyrrolidin]-2′-one] and `O=C1N(c2ccc(-c3cn[nH]c3)cc2)CCC12Cc1cc(F)ccc1N2` (single isomer, unassigned) [Example 9, 1′-(4-(1H-Pyrazol-4-yl)phenyl)-5-fluorospiro[indoline-2,3′-pyrrolidin]-2′-one] fall in the same range of IC50: 30 to 300 nM for the first, 30 to 300 nM for the second.

Compared with `COc1ccc2c(c1)NC1(CCN(c3ccc(-c4cn[nH]c4)cc3)C1=O)C2` (single isomer, unassigned) [Example 6, 1′-(4-(1H-Pyrazol-4-yl)phenyl)-6-methoxyspiro[indoline-2,3′-pyrrolidin]-2′-one], `O=C1N(c2ccc(-c3cn[nH]c3)cc2)CCC12Cc1ccc(OCC3CC3)cc1N2` (single isomer, unassigned) [Example 42, 1′-(4-(1H-Pyrazol-4-yl)phenyl)-6-(cyclopropylmethoxy)spiro[indoline-2,3′-pyrrolidin]-2′-one] is lower in IC50: 3 to 30 nM for the first, < 3 nM for the second. The second is the more potent here.

Compared with `O=C1N(c2ccc(-c3cn[nH]c3)cc2)CCC12Cc1ccc(F)cc1C2` (single isomer, unassigned) [Example 15, 1′-(4-(1H-Pyrazol-4-yl)phenyl)-5-fluoro-1,3-dihydrospiro[indene-2,3′-pyrrolidin]-2′-one], `COc1ccc2c(c1)CC1(CCN(c3ccc(-c4cn[nH]c4)cc3)C1=O)C2` (single isomer, unassigned) [Example 22, 1′-(4-(1H-Pyrazol-4-yl)phenyl)-5-methoxy-1,3-dihydrospiro[indene-2,3′-pyrrolidin]-2′-one] is lower in IC50: 3 to 30 nM for the first, < 3 nM for the second. The second is the more potent here.

`O=C1N(c2ccc(-c3cn[nH]c3)cc2)CCC12Cc1ccc(F)cc1C2` (single isomer, unassigned) [Example 16, 1′-(4-(1H-Pyrazol-4-yl)phenyl)-5-fluoro-1,3-dihydrospiro[indene-2,3′-pyrrolidin]-2′-one] and `O=C1N(c2ccc(-c3cn[nH]c3)cc2)CCC12Cc1ccccc1C2` [Example 11, 1′-(4-(1H-Pyrazol-4-yl)phenyl)-1,3-dihydrospiro[indene-2,3′-pyrrolidin]-2′-one] fall in the same range of IC50: 3 to 30 nM for the first, 3 to 30 nM for the second.

First: COc1nc(N2CCC3(Cc4ccc(F)cc4C3)C2=O)ccc1-c1cn[nH]c1 (single isomer, unassigned) [Example 17, 5-Fluoro-1′-(6-methoxy-5-(1H-pyrazol-4-yl)pyridin-2-yl)-1,3-dihydrospiro[indene-2,3′-pyrrolidin]-2′-one]
Second: COc1ccc2c(c1)CC1(CCN(c3ccc(-c4cn[nH]c4)c(OC)n3)C1=O)C2 (single isomer, unassigned) [Example 19, 5-Methoxy-1′-(6-methoxy-5-(1H-pyrazol-4-yl)pyridin-2-yl)-1,3-dihydrospiro[indene-2,3′-pyrrolidin]-2′-one]
The IC50 of the first is lower: < 3 nM for the first, 300 to 2000 nM for the second. The first is the more potent here.

First: COc1nc(N2CCC3(Cc4ccc(F)cc4C3)C2=O)ccc1-c1cn[nH]c1 (single isomer, unassigned) [Example 18, 5-Fluoro-1′-(6-methoxy-5-(1H-pyrazol-4-yl)pyridin-2-yl)-1,3-dihydrospiro[indene-2,3′-pyrrolidin]-2′-one]
Second: COc1ccc2c(c1)CC1(CCN(c3ccc(-c4cn[nH]c4)c(OC)n3)C1=O)C2 (single isomer, unassigned) [Example 20, 5-Methoxy-1′-(6-methoxy-5-(1H-pyrazol-4-yl)pyridin-2-yl)-1,3-dihydrospiro[indene-2,3′-pyrrolidin]-2′-one]
The IC50 of the first is higher: 3 to 30 nM for the first, < 3 nM for the second. The second is the more potent here.

First: COc1ccc2c(c1)CC1(CCN(c3ccc(-c4cn[nH]c4)cc3)C1=O)O2 (single isomer, unassigned) [Example 26, 1′-(4-(1H-Pyrazol-4-yl)phenyl)-5-methoxy-3H-spiro[benzofuran-2,3′-pyrrolidin]-2′-one]
Second: O=C1N(c2ccc(-c3cn[nH]c3)cc2)CCC12Cc1ccccc1O2 (single isomer, unassigned) [Example 30, 1′-(4-(1H-Pyrazol-4-yl)phenyl)-3H-spiro[benzofuran-2,3′-pyrrolidin]-2′-one]
The IC50 of the first is lower: < 3 nM for the first, 30 to 300 nM for the second. The first is the more potent here.

`O=C1N(c2ccc(-c3cn[nH]c3)cc2)CCC12Cc1ccccc1O2` (single isomer, unassigned) [Example 31, 1′-(4-(1H-Pyrazol-4-yl)phenyl)-3H-spiro[benzofuran-2,3′-pyrrolidin]-2′-one] and `COc1ccc2c(c1)NC1(CCN(c3ccc(-c4cn[nH]c4)cc3)C1=O)C2` (stereo not shown) [Example 4, 1′-(4-(1H-Pyrazol-4-yl)phenyl)-6-methoxyspiro[indoline-2,3′-pyrrolidin]-2′-one] cannot be ordered by IC50: < 3 nM for the first, < 3 nM for the second.

First: COc1cc(N2CCC3(Cc4ccccc4N3)C2=O)ccc1-c1cn[nH]c1 (single isomer, unassigned) [Example 33, 1′-(3-Methoxy-4-(1H-pyrazol-4-yl)phenyl)spiro[indoline-2,3′-pyrrolidin]-2′-one]
Second: O=C1N(c2ccc(-c3ccc4[nH]ncc4c3)cc2)CCC12Cc1ccccc1N2 (stereo not shown) [Example 13, 1′-(4-(1H-Indazol-5-yl)phenyl)spiro[indoline-2,3′-pyrrolidin]-2′-one]
The IC50 of the first is higher: 30 to 300 nM for the first, 3 to 30 nM for the second. The second is the more potent here.

Compared with `COc1cc(N2CCC3(Cc4ccccc4N3)C2=O)ccc1-c1cn[nH]c1` (single isomer, unassigned) [Example 34, 1′-(3-methoxy-4-(1H-pyrazol-4-yl)phenyl)spiro[indoline-2,3′-pyrrolidin]-2′-one], `COc1cc(F)c2c(c1)NC1(CCN(c3ccc(-c4cn[nH]c4)cc3)C1=O)C2` (single isomer, unassigned) [Example 39, 1′-(4-(1H-Pyrazol-4-yl)phenyl)-4-fluoro-6-methoxyspiro[indoline-2,3′-pyrrolidin]-2′-one] is higher in IC50: < 3 nM for the first, 300 to 2000 nM for the second.

Compared with `COc1cc(F)c2c(c1)NC1(CCN(c3ccc(-c4cn[nH]c4)cc3)C1=O)C2` (single isomer, unassigned) [Example 40, 1′-(4-(1H-Pyrazol-4-yl)phenyl)-4-fluoro-6-methoxyspiro[indoline-2,3′-pyrrolidin]-2′-one], `O=C1N(c2ccc(-c3cn[nH]c3)cc2)CCC12Cc1ccc(OCC3CC3)cc1N2` (single isomer, unassigned) [Example 43, 1′-(4-(1H-Pyrazol-4-yl)phenyl)-6-(cyclopropylmethoxy)spiro[indoline-2,3′-pyrrolidin]-2′-one] is higher in IC50: < 3 nM for the first, 30 to 300 nM for the second. The first is the more potent here.

First: COc1ccc2c(c1)N(C)C1(CCN(c3ccc(-c4cn[nH]c4)cc3)C1=O)C2 (stereo not shown) [Example 14, 1′-(4-(1H-Pyrazol-4-yl)phenyl)-6-methoxy-1-methylspiro[indoline-2,3′-pyrrolidin]-2′-one]
Second: COc1nc(N2CCC3(Cc4ccccc4C3)C2=O)ccc1-c1cn[nH]c1 [Example 23, 1′-(6-Methoxy-5-(1H-pyrazol-4-yl)pyridin-2-yl)-1,3-dihydrospiro[indene-2,3′-pyrrolidin]-2′-one]
The IC50 of the first is higher: 30 to 300 nM for the first, < 3 nM for the second.
